Measured values: patent US6506580B1, “Splice variants for human 5-HT4 serotonin receptor and their applications, in particular for screening” (Institut National de la Sante et de la Recherche Medicale …, priority 1997, dated 2003)
Counter-ions that a name gives are not always drawn. Like-named read-outs stand apart in the source and are kept apart here.

Columns and labels:
[1] = molecular target: T1, receptor 5-HT4(b) (Homo sapiens, UniProt Q13639); experiment: [3H]GR113808 radioligand binding, membranes of transiently transfected COS-7 cells
T1 construct: The entire coding region of the cDNAs of 5-HT4(a), 5-HT4(b), 5-HT4(c) and 5-T4(d) was subcloned; expressed in transfected cells; host or cells: COS-7 cells, transient, pRC/CMV vector; cDNA amplified from human brain and ileum RNA
Procedure: (§1) The entire coding region of the cDNAs of 5-HT4(a), 5-HT4(b), 5-HT4(c) and 5-T4(d) was subcloned into a mammalian expression vector pRC/CMV (Invitrogen, Carlsbad, Calif.). The transfections were carried out using polyethyleneimine (PEI) as described in Boussif et al. (1995). The cells were transfected using a mixture of DNA and of PEI in a ratio of 20 μmol of PEI/mg of DNA in 0.9% NaCl. For the radioligand binding assays, the COS-7 cells were seeded into culture flasks of 1.5×10^4 mm^2 one day before the transfection, at a density of 1×10^7 cells/flask, incubated for six hours with plasmid DNA (150 μg/flask) and collected 48 hours after transfection. For the measurement of cAMP formation, the COS-7 cells were seeded onto twelve-well plates one day before transfection, at a density of 5×10^5 cells/well, incubated for six hours with plasmid DNA (4 to 8 μg/well according to the experiments) and assayed 24 hours after the transfection. The cells transfected with the receptor 5-HT4 cDNA constructs were compared with the “blank”-transfected cells, which were exposed to the unmodified pRC/CMV plasmid.
(§2) Each flask of cells intended for the radioligand binding assays was washed twice with a phosphate buffer (PBS). The cells were then scraped, collected and centrifuged at 300 g for five minutes. The pellet was resuspended in 2.5 ml of ice-cold HEPES buffer (50 mM, pH 7.4) and homogenized with an Ultraturax tissue grinder. The lysate was then centrifuged at 40,000 g for 20 minutes at 4° C. The resulting pellet was resuspended in 15 volumes of HEPES buffer (50 mM, pH 7.4). The membrane preparations were maintained in ice and used within two hours for radioligand binding assays. The protein concentrations were determined by the method of Lowry et al., 1951, using bovine serum albumin as standard.
(§3) The saturation studies were performed using [^3H] GR113808 at 9 different concentrations ranging from 0.01 to 3.5 nM. The tubes were incubated at 25° C. for 30 minutes. The reaction-was stopped by rapid filtration, under vacuum, through Whatman GF/B filter paper using the Brandel 48R cell harvester. The filters were presoaked in a solution of PEI (0.1%) to reduce the binding to the filters. The filters were then washed with an ice-cold buffer (50 mM Tris-HCl, pH 7.4) and placed in 4 ml of “ready safe” scintillation cocktail (Beckman, Fullerton, Calif.) overnight. The radioactivity was measured using a Beckman LS 6500 C liquid scintillation counter. The binding data were analysed by computer-assisted nonlinear regression analysis (Graph Pad Prism Program, Graph Pad Software, Inc., San Diego, Calif.).
(§4) The experiments correspond to the competition of various compounds for [^3H]GR113808 binding to membranes of transiently transfected COS-7 cells. […] The estimations of affinity are given as Ki values in nM, and are determined from IC50 values obtained by computer-assisted nonlinear curve analysis (GraphPad, Prism Software). The Ki values are representative of at least two determinations.

[2] = molecular target: T2, receptor 5-HT4(a) (Homo sapiens, UniProt Q13639); experiment: as above
T2 construct: The entire coding region of the cDNAs of 5-HT4(a), 5-HT4(b), 5-HT4(c) and 5-T4(d) was subcloned; expressed in transfected cells; host or cells: COS-7 cells, transient, pRC/CMV vector
Procedure: as §1, §2, §3, §4

[3] = molecular target: T3, receptor 5-HT4(d) (Homo sapiens, UniProt Q13639); experiment: as above; set-up: The entire coding region of the cDNAs of 5-HT4(a), 5-HT4(b), 5-HT4(c) and 5-T4(d) was subcloned; expressed in transfected cells; host or cells: COS-7 cells, transient, pRC/CMV vector; cDNA amplified from human brain and ileum RNA
Procedure: as §1, §2, §3, §4

[4] = molecular target: T4, receptor 5-HT4(c) (Homo sapiens, UniProt Q13639); experiment: as above; set-up: The entire coding region of the cDNAs of 5-HT4(a), 5-HT4(b), 5-HT4(c) and 5-T4(d) was subcloned; expressed in transfected cells; host or cells: COS-7 cells, transient, pRC/CMV vector; cDNA amplified from human brain and ileum RNA
Procedure: as §1, §2, §3, §4

[5] = system: “blank”-transfected COS-7 cells; experiment: cAMP formation in control COS-7 cells; assay type: cell-based; conditions: 1 μM
Procedure: as §1
(§5) To measure intracellular cAMP accumulation, the transiently transfected COS-7 cells were incubated, 24 hours after transfection, in Dulbecco's modified Eagle medium (DMEM) containing 5 mM theophylline, 10 mM HEPES and 10 μM pargyline for 15 minutes at 37° C., in the presence of 5% CO2. […] The reaction was stopped by aspiration of the medium and addition of 500 μl of ice-cold ethanol. After one hour at room temperature, the cells were scraped, and everything was collected and freeze-dried. The pellet was resuspended in 350 μl of PBS and centrifuged for 5 min at 300 g. The cAMP was quantified in the supernatant using a radioimmunological assay (E.R.I.A. assay kit from Pasteur Diagnostics 79830). Student's t tests were carried out using the program Quick TEst.

[6] = molecular target: T2, receptor 5-HT4(a); experiment: cAMP formation in transiently transfected COS-7 cells; assay type: cell-based; conditions: COS-7, 1 μM agonist, 15 minutes
Procedure: as §1, §5

[7] = system: cells expressing the isoforms of the receptor 5-HT4; experiment: cAMP formation in transiently transfected COS-7 cells, statement for all isoforms together; assay type: cell-based, human
Procedure: The entire coding region of the cDNAs of 5-HT4(a), 5-HT4(b), 5-HT4(c) and 5-T4(d) was subcloned into a mammalian expression vector pRC/CMV (Invitrogen, Carlsbad, Calif.). The transfections were carried out using polyethyleneimine (PEI) as described in Boussif et al. (1995). The cells were transfected using a mixture of DNA and of PEI in a ratio of 20 μmol of PEI/mg of DNA in 0.9% NaCl. […] The cells transfected with the receptor 5-HT4 cDNA constructs were compared with the “blank”-transfected cells, which were exposed to the unmodified pRC/CMV plasmid. […] The reaction was stopped by aspiration of the medium and addition of 500 μl of ice-cold ethanol. After one hour at room temperature, the cells were scraped, and everything was collected and freeze-dried. The pellet was resuspended in 350 μl of PBS and centrifuged for 5 min at 300 g. The cAMP was quantified in the supernatant using a radioimmunological assay (E.R.I.A. assay kit from Pasteur Diagnostics 79830). Student's t tests were carried out using the program Quick TEst.

[8] = molecular target: T3, receptor 5-HT4(d); experiment: [3H]GR113808 saturation binding, membranes of stably transfected CHO cells; set-up: The entire coding region of the cDNAs of 5-HT4(a), 5-HT4(b), 5-HT4(c) and 5-T4(d) was subcloned; expressed in transfected cells; pRC/CMV vector; cDNA amplified from human brain and ileum RNA; conditions: 30 minutes at 25° C., read-out: Kd, saturation analysis
Procedure: (§6) The entire coding region of the 5-HT4(c) and 5-HT4(d) cDNAs was subcloned into a mammalian expression vector pRC/CMV (Invitrogen, Carlsbad, Calif.). The CHO cells are stably transfected by electroporation (250 V, 960 μF) with the plasmid PRc/CMV, containing the clone h5-HT4(c) or h5-HT4(d), cleaved with the restriction enzyme Kpn1 (10 μg of plasmid for 10^7 cells). The cells are cultured in HAM-F12 medium supplemented with 10% of heat-inactivated foetal calf serum. […] Twelve days later, the clones are individualized and cultured in 12-well plates. Clone selection is carried out by studying the stimulation of the cAMP formed in the presence of 1 μM serotonin. […]
(§7) Each flask of cells intended for the radioligand binding assays was washed twice with a phosphate buffer (PBS). […] The protein concentrations were determined by the method of Lowry et al., 1951, using bovine serum albumin as standard.
(§8) The radioligand binding studies were carried out in 500 μl of buffer (50 mM HEPES, pH 7.4) [lacuna] […] The filters were then washed with an ice-cold buffer (50 mM Tris-HCl, pH 7.4) and placed in 4 ml of “ready safe” scintillation cocktail (Beckman, Fullerton, Calif.) overnight. The radioactivity was measured using a Beckman LS 6500 C liquid scintillation counter. […]

[9] = molecular target: T4, receptor 5-HT4(c); experiment: as above; set-up: The entire coding region of the cDNAs of 5-HT4(a), 5-HT4(b), 5-HT4(c) and 5-T4(d) was subcloned; expressed in transfected cells; pRC/CMV vector; cDNA amplified from human brain and ileum RNA; conditions: 30 minutes at 25° C., read-out: Kd, saturation analysis
Procedure: as §6, §7, §8

[10] = read-out: Ki, competition for [3H]GR113808 binding
[11] = 5-HT4(a), COS-7 membranes, [3H]GR113808 at 50% of Kd, read-out: Ki, competition for [3H]GR113808 binding
[12] = 5-HT4(d), COS-7 membranes, [3H]GR113808 at 50% of Kd, read-out: Ki, competition for [3H]GR113808 binding
[13] = 5-HT4(b), COS-7 membranes, [3H]GR113808 at 50% of Kd, read-out: Ki, competition for [3H]GR113808 binding
[14] = 5-HT4(c), COS-7 membranes, [3H]GR113808 at 50% of Kd, read-out: Ki, competition for [3H]GR113808 binding

T1 sequence (Q13639 whole entry): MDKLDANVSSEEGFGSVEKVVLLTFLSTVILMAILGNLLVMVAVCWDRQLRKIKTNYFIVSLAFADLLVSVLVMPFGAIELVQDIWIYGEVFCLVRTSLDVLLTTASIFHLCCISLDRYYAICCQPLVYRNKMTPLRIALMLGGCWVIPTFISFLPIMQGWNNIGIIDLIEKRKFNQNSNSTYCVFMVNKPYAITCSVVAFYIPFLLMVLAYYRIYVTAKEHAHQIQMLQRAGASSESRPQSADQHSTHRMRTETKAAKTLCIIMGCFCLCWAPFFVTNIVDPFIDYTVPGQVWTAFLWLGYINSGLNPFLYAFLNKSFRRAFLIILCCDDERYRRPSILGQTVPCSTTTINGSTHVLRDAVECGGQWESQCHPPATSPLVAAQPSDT
T3 sequence (Q13639 1-360 isoform Q13639-3): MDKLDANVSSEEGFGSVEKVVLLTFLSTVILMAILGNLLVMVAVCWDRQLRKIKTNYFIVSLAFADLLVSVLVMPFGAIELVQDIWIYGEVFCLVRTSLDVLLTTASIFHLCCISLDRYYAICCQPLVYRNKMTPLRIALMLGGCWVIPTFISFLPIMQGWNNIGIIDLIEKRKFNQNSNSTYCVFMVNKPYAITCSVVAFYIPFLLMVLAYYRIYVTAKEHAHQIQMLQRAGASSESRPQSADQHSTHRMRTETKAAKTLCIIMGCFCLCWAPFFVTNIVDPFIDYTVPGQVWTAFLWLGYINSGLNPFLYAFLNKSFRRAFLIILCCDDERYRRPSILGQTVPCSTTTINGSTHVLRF
T2 sequence (Q13639 1-387 isoform Q13639-2): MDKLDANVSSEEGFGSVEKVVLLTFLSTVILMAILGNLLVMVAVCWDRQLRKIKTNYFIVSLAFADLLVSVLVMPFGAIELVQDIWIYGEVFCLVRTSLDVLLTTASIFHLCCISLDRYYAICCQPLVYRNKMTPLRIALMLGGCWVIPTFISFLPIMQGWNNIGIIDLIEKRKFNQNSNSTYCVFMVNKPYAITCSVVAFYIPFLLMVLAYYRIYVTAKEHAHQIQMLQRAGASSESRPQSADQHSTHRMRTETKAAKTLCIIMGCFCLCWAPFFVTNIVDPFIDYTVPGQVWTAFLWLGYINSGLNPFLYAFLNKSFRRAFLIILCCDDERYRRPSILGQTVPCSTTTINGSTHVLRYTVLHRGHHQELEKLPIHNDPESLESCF
T4 sequence (Q13639 1-380 isoform Q13639-4): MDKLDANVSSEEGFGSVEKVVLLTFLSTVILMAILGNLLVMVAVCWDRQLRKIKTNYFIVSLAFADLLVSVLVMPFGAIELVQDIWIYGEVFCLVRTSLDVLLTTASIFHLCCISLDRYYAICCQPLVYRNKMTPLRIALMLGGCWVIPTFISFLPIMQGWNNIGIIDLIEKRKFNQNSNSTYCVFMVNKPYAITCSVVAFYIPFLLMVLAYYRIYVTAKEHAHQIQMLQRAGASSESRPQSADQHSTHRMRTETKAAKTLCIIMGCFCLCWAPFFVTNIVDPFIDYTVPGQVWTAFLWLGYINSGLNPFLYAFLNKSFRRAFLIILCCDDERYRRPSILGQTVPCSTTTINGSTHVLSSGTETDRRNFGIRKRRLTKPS

Question: What does the source list for `COc1cc(N)c(Cl)cc1C(=O)NC1CN2CCC1CC2` (stereo not drawn) [Zacopride, 4-amino-5-chloro-2-methoxy-N-(1-azabicyclo-[2,2,2]octo-3-yl)benzamide, hydrochloride]?
Answer: Ki [1, 10]: 11500 ± 950 nM; Ki [2, 11]: 7750 ± 1620 nM; Ki [3, 12]: 3600 ± 1840 nM; Ki [4, 10]: 10600 ± 2160 nM

Question: `COc1cc(N)c(Cl)cc1C(=O)NC1CCN2CCCC1C2` (single isomer, unassigned; (+)) [Renzapride, (+)endo-4-amino-5-chloro-2-methoxy-N-(1-azabicyclo[3.3.1]non-4-yl)benzamide, hydrochloride] was tested. Which “effect on basal adenylate cyclase activity / basal cAMP levels” value [5] did it give?
Answer: The value was “no significant effect”.

Question: What about the “increase in cAMP concentration” value [6] of the same compound?
Answer: Its value is 56%.

Question: `COc1cc(N)c(Cl)cc1C(=O)OCCN1CCCCC1` [ML10302, 2-(1-piperidyl)ethyl 4-amino-5-chloro-2-methoxy-benzoate] was tested. Which “stimulatory effect on cAMP as % of the stimulatory effect of 5-HT” value ([7]; 1 μM, COS-7 cells expressing the isoforms of the receptor 5-HT4) did it give?
Answer: Its value is 28 to 34%.

Question: What about the “antagonism of the capacity of 5-HT (1 μM) to increase basal cAMP levels” value ([7]; preincubation with 1 μM prior to 5-HT, COS-7 cells expressing the isoforms) of the same compound?
Answer: The value was “significantly antagonizes”.

Question: What about the “effect on basal adenylate cyclase activity / basal cAMP levels” value [5] of the same compound?
Answer: Its value is “no significant effect”.

Question: `COc1ccc2[nH]cc(CCN)c2c1` [5-MeOT, 5-methoxytryptamine] was tested. Which Ki [1, 13] did it give?
Answer: The Ki was 2440 ± 510 nM.

Question: And the Ki [2, 11]?
Answer: The Ki was 2080 ± 508 nM.

Question: And the Ki [3, 12]?
Answer: Its Ki is 553 ± 149 nM.

Question: And the Ki [4, 14]?
Answer: The Ki was 1020 ± 236 nM.

Question: For `CCn1c(=O)n(C(=O)N[C@H]2C[C@H]3CC[C@@H](C2)N3C)c2ccccc21` [BIMU1], which Ki [1] is on record?
Answer: Its Ki is 123 ± 9 nM.

Question: And the Ki [2]?
Answer: The Ki was 373 ± 119 nM.

Question: What about the Ki [3] of the same compound?
Answer: Its Ki is 38.8 ± 12 nM.

Question: What about the Ki [4] of the same compound?
Answer: The Ki was 66 ± 8.37 nM.

Question: With `Cn1cc(C(=O)OCC2CCN(CCNS(C)(=O)=O)CC2)c2ccccc21` [[^3H]GR113808] as the compound, how does the Kd ([1]; 5-HT4(b), COS-7 membranes, 30 minutes at 25° C., read-out: Kd, saturation analysis) read?
Answer: The Kd was 0.62 ± 0.05 nM.

Question: What about the Kd ([2]; 5-HT4(a), COS-7 membranes, 30 minutes at 25° C., read-out: Kd, saturation analysis) of the same compound?
Answer: Its Kd is 0.23 ± 0.06 nM.

Question: What about the Kd ([3]; 5-HT4(d), COS-7 membranes, 30 minutes at 25° C., read-out: Kd, saturation analysis) of the same compound?
Answer: Its Kd is 0.14 ± 0.05 nM.

Question: What about the Kd ([4]; 5-HT4(c), COS-7 membranes, 30 minutes at 25° C., read-out: Kd, saturation analysis) of the same compound?
Answer: Its Kd is 0.3 ± 0.08 nM.

Question: And the Kd [8]?
Answer: The Kd was 0.23 ± 0.03 nM.

Question: What about the Kd [9] of the same compound?
Answer: Its Kd is 0.42 ± 0.04 nM.

Question: Which Ki [1, 13] does the source give for `Cn1cc(C(=O)OCC2CCN(CCNS(C)(=O)=O)CC2)c2ccccc21` [GR113808, ([1-[2-(methylsulphonyl)amino]ethyl]-4-piperidyl)methyl 1-methyl-1H-indole-3-carboxylate] here?
Answer: Its Ki is 0.53 ± 0.1 nM.

Question: What about the Ki [2, 11] of the same compound?
Answer: Its Ki is 0.33 ± 0.033 nM.

Question: What about the Ki [3, 12] of the same compound?
Answer: The Ki was 0.078 nM.

Question: What about the Ki [4, 14] of the same compound?
Answer: Its Ki is 0.41 ± 0.13 nM.
